The record followed here is patent publication US10485800B2, “Mixed lineage kinase inhibitors for HIV/AIDS therapies” (UNIVERSITY OF ROCHESTER, priority 2012, dated 2019).

Where a name gives a salt, the structure may show the parent alone.

MLK3, sequence (Q16584 whole entry): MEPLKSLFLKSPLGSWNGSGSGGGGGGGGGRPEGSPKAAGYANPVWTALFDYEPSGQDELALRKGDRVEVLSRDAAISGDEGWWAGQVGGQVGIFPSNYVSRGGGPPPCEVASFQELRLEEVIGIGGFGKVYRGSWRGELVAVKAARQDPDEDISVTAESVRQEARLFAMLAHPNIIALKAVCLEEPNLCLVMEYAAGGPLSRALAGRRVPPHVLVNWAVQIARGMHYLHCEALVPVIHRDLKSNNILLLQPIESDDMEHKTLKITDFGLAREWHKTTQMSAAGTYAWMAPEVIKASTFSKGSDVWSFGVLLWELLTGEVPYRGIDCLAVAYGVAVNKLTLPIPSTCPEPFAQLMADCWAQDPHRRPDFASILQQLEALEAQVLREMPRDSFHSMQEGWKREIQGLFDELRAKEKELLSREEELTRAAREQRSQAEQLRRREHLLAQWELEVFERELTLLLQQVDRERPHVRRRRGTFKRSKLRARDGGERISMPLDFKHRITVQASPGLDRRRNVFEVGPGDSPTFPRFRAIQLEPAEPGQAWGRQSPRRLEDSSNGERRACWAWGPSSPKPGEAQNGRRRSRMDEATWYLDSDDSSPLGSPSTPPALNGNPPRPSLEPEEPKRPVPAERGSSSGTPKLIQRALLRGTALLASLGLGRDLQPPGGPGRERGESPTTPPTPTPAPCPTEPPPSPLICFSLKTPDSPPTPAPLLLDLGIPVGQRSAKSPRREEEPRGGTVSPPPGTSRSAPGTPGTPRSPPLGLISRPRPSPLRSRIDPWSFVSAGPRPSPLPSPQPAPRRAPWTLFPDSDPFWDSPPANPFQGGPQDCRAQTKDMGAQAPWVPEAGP

The first assay concerns the target MLK3 (Homo sapiens (Human), UniProt Q16584). In words: Radiometric filter plate MLK3 assay. The assay is classed as biochemical. Particulars: 2 μM cold ATP (Km), 1 μM inactive MKK7b, twenty minute incubation; read-out: MK3 IC50. How it is done:
After a twenty minute incubation, the reactions were washed through filter plates and read on a scintillation counter. Results are shown in Table 9 below, in which +++ indicates ≤0.1 μM, ++ indicates >0.1 μM and ≤1 μM, and + indicates >1 μM.
Broadly, the IC50 is the concentration at which inhibition is half-maximal. As to `Cc1cc(C)cc(-c2cnc3[nH]c(=O)n(-c4ccc5cn[nH]c5c4)c3n2)c1` [Example 95, 6-(3,5-dimethylphenyl)-1-(1H-indazol-6-yl)-1H-imidazo[4,5-b]pyrazin-2(3H)-one], the IC50 was above 1 µM.
The same measure, in the same setting: for `O=c1[nH]c2ncc(-c3ccncc3)nc2n1-c1ccc2scnc2c1` [Example 98, 1-(benzo[d]thiazol-5-yl)-6-(pyridin-4-yl)-1H-imidazo[4,5-b]pyrazin-2(3H)-one] the value was above 1 µM; for `Cc1cc(C)cc(-c2cnc3[nH]c(=O)n(-c4ccc5scnc5c4)c3n2)c1` [Example 99, 1-(benzo[d]thiazol-5-yl)-6-(3,5-dimethylphenyl)-1H-imidazo[4,5-b]pyrazin-2(3H)-one], above 1 µM.
On the same count and under the same terms, for `O=c1[nH]c2ncc(-c3ccc(N4CCOCC4)cc3)nc2n1-c1ccc2scnc2c1` [Example 100, 1-(benzo[d]thiazol-5-yl)-6-(4-morpholinophenyl)-1H-imidazo[4,5-b]pyrazin-2(3H)-one] the value was above 1 µM; for `COc1cc(-c2cnc3[nH]c(=O)n(C4CCc5ccccc54)c3n2)cc(OC)c1OC` (stereo not drawn) [Example 101, 1-(2,3-dihydro-1H-inden-1-yl)-6-(3,4,5-trimethoxyphenyl)-1H-imidazo[4,5-b]pyrazin-2(3H)-one], above 1 µM.
With `COc1cc(-c2cnc3[nH]c(=O)n(-c4ccc5[nH]cnc5c4)c3n2)cc(OC)c1OC` [Example 102, 1-(1H-benzo[d]imidazol-5-yl)-6-(3,4,5-trimethoxyphenyl)-1H-imidazo[4,5-b]pyrazin-2(3H)-one], the IC50 is below 0.1 µM.
As for `COc1cc(-c2cnc3[nH]c(=O)n(-c4ccc(N5CCOCC5)nc4)c3n2)cc(OC)c1OC` [Example 109, 1-(6-morpholinopyridin-3-yl)-6-(3,4,5-trimethoxyphenyl)-1H-imidazo[4,5-b]pyrazin-2(3H)-one], the IC50 was above 1 µM.
The same measure, in the same setting: next, `COc1cc(-c2cnc3[nH]c(=O)n(C4Cc5ccccc5C4)c3n2)cc(OC)c1OC` [Example 110, 1-(2,3-dihydro-1H-inden-2-yl)-6-(3,4,5-trimethoxyphenyl)-1H-imidazo[4,5-b]pyrazin-2(3H)-one]: below 0.1 µM.
Turning to `COc1cc(-c2cnc3[nH]c(=O)n(-c4cnc5[nH]ccc5c4)c3n2)cc(OC)c1OC` [Example 112, 1-(1H-pyrrolo[2,3-b]pyridin-5-yl)-6-(3,4,5-trimethoxyphenyl)-1H-imidazo[4,5-b]pyrazin-2(3H)-one], the half-inhibitory concentration (IC50) was below 0.1 µM.
On the same count and under the same terms, next, `COc1cc(-c2cnc3[nH]c(=O)n(-c4ccc5cc[nH]c5c4)c3n2)cc(OC)c1OC` [Example 113, 1-(1H-indol-6-yl)-6-(3,4,5-trimethoxyphenyl)-1H-imidazo[4,5-b]pyrazin-2(3H)-one]: below 0.1 µM; `Nc1ccc(-c2cnc3[nH]c(=O)n(C4CCCC4)c3n2)cn1` [Example 117, 6-(6-aminopyridin-3-yl)-1-cyclopentyl-1H-imidazo[4,5-b]pyrazin-2(3H)-one]: above 1 µM.
With `COc1cc(-c2nc3c(nc2Cl)[nH]c(=O)n3CC2CC2)cc(OC)c1OC` [Example 119, 5-chloro-1-(cyclopropylmethyl)-6-(3,4,5-trimethoxyphenyl)-1H-imidazo[4,5-b]pyrazin-2(3H)-one], the half-maximal inhibitory concentration (IC50) is above 1 µM.
On the same count and under the same terms, next, `COc1cc(-c2cnc3c(c2)C(CC2CC2)C(=O)N3)cc(OC)c1OC` (stereo not drawn) [Example 123, 3-(cyclopropylmethyl)-5-(3,4,5-trimethoxyphenyl)-1H-pyrrolo[2,3-b]pyridin-2(3H)-one]: 0.1 to 1 µM; `COc1cc(-c2cnc3[nH]c(=O)n(CC4CC4)c3c2)cc(OC)c1OC` [Example 125, 1-(cyclopropylmethyl)-6-(3,4,5-trimethoxyphenyl)-1H-imidazo[4,5-b]pyridin-2(3H)-one]: above 1 µM.
Turning to `COc1cc(-c2cnc3ncn(-c4ccc5[nH]ccc5c4)c3n2)cc(OC)c1OC` [Example 126, 1-(1H-indol-5-yl)-6-(3,4,5-trimethoxyphenyl)-1H-imidazo[4,5-b]pyrazine], the IC50 was above 1 µM.
The same measure, in the same setting: next, `COc1cc(-c2cnc3[nH]c(=S)n(CC4CC4)c3n2)cc(OC)c1OC` [Example 127, 1-(cyclopropylmethyl)-6-(3,4,5-trimethoxyphenyl)-1H-imidazo[4,5-b]pyrazine-2(3H)-thione]: above 1 µM; `COc1cc(-c2cnc3c(c2)C(=Cc2ccccc2)C(=O)N3)cc(OC)c1OC` [Example 130, 3-benzylidene-5-(3,4,5-trimethoxy-phenyl)-1,3-dihydro-pyrrolo[2,3-b]pyridin-2-one]: above 1 µM.
Regarding `COc1cc(-c2cnc3c(c2)C(=Cc2cccc(C(N)=O)c2)C(=O)N3)cc(OC)c1OC` [Example 132, 3-[2-oxo-5-(3,4,5-trimethoxy-phenyl)-1,2-dihydro-pyrrolo[2,3-b]pyridin-3-ylidenemethyl]-benzamide], the half-maximal inhibitory concentration (IC50) is above 1 µM.
With `COc1cc(-c2cnc3c(c2)C(=Cc2ccc(C#N)cc2)C(=O)N3)cc(OC)c1OC` [Example 133, 4-[2-oxo-5-(3,4,5-trimethoxy-phenyl)-1,2-dihydro-pyrrolo[2,3-b]pyridin-3-ylidenemethyl]-benzonitrile], the half-inhibitory concentration (IC50) was above 1 µM.
On to `COc1cc(-c2cnc3c(c2)C(=Cc2cccc(C#N)c2)C(=O)N3)cc(OC)c1OC` [Example 134, 3-[2-oxo-5-(3,4,5-trimethoxy-phenyl)-1,2-dihydro-pyrrolo[2,3-b]pyridin-3-ylidenemethyl]-benzonitrile], for which the 50% inhibitory concentration (IC50) was above 1 µM.
`COc1cc(-c2cnc3c(c2)C(Cc2cccnc2)C(=O)N3)cc(OC)c1OC` (stereo not drawn) [Example 135, 3-pyridin-3-ylmethyl-5-(3,4,5-trimethoxy-phenyl)-1,3-dihydro-pyrrolo[2,3-b]pyridin-2-one]: the IC50 is above 1 µM.
Same read-out and setting: next, `COc1cc(-c2cnc3c(c2)C(Cc2ccncc2)C(=O)N3)cc(OC)c1OC` (stereo not drawn) [Example 136, 3-pyridin-4-ylmethyl-5-(3,4,5-trimethoxy-phenyl)-1,3-dihydro-pyrrolo[2,3-b]pyridin-2-one]: above 1 µM; `COc1cc(-c2cnc3c(c2)C(Cc2ccccc2)C(=O)N3)cc(OC)c1OC` (stereo not drawn) [Example 137, 3-benzyl-5-(3,4,5-trimethoxy-phenyl)-1,3-dihydro-pyrrolo[2,3-b]pyridin-2-one]: above 1 µM; `COc1cc(-c2cnc3c(c2)C(Cc2ccc(C(N)=O)cc2)C(=O)N3)cc(OC)c1OC` (stereo not drawn) [Example 138, 4-[2-oxo-5-(3,4,5-trimethoxy-phenyl)-2,3-dihydro-1H-pyrrolo[2,3-b]pyridin-3-ylmethyl]-benzamide]: above 1 µM.
Still for that read-out and setting: next, `CC(=O)N1CCN(Cc2ccc(-c3cnc4[nH]cc(-c5ccc6[nH]ccc6c5)c4c3)cc2)CC1` [Example 140, 1-(4-{4-[3-(1H-indol-5-yl)-1H-pyrrolo[2,3-b]pyridin-5-yl]-benzyl}-piperazin-1-yl)-ethanone]: above 1 µM; `CN1CCN(Cc2ccc(-c3cnc4[nH]cc(-c5ccc6[nH]ccc6c5)c4c3)cc2)CC1=O` [Example 141, 4-{4-[3-(1H-indol-5-yl)-1H-pyrrolo[2,3-b]pyridin-5-yl]-benzyl}-1-methyl-piperazin-2-one]: below 0.1 µM.
Same read-out and setting: next, `O=C1CN(Cc2ccc(-c3cnc4[nH]cc(-c5ccc6[nH]ccc6c5)c4c3)cc2)CCN1` [Example 142, 4-{4-[3-(1H-indol-5-yl)-1H-pyrrolo[2,3-b]pyridin-5-yl]-benzyl}-piperazin-2-one]: below 0.1 µM; `CN1CCN(Cc2cccc(-c3cnc4[nH]cc(-c5ccc6[nH]ccc6c5)c4c3)c2)CC1=O` [Example 143, 4-{3-[3-(1H-indol-5-yl)-1H-pyrrolo[2,3-b]pyridin-5-yl]-benzyl}-1-methyl-piperazin-2-one]: below 0.1 µM.
As to `CC(C)(C)OC(=O)N1CCN(Cc2ccc(-c3cnc4[nH]cc(-c5ccc6[nH]ccc6c5)c4c3)cc2)CC1` [Example 144, 4-{4-[3-(1H-indol-5-yl)-1H-pyrrolo[2,3-b]pyridin-5-yl]-benzyl}-piperazine-1-carboxylic acid tert-butyl ester], the concentration for half-maximal inhibition (IC50) was below 0.1 µM.
For `CC(=O)N1CCN(C(=O)c2ccc(-c3cnc4[nH]cc(-c5ccc6[nH]ccc6c5)c4c3)cc2)CC1` [Example 146, 1-(4-{4-[3-(1H-indol-5-yl)-1H-pyrrolo[2,3-b]pyridin-5-yl]-benzoyl}-piperazin-1-yl)-ethanone], the concentration for half-maximal inhibition (IC50) is below 0.1 µM.
Same read-out and setting: for `CC(C)(C)OC(=O)N1CCN(C(=O)c2ccc(-c3cnc4[nH]cc(-c5ccc(C(N)=O)cc5)c4c3)cc2)CC1` [Example 148, 4-{4-[3-(4-carbamoyl-phenyl)-1H-pyrrolo[2,3-b]pyridin-5-yl]-benzoyl}-piperazine-1-carboxylic acid tert-butyl ester] the value was below 0.1 µM; for `NC(=O)c1ccc(-c2c[nH]c3ncc(-c4ccc(C(=O)N5CCNCC5)cc4)cc23)cc1` [Example 149, 4-{5-[4-(piperazine-1-carbonyl)-phenyl]-1H-pyrrolo[2,3-b]pyridin-3-yl}-benzamide, hydrochloride salt], below 0.1 µM; for `CC(C)(C)OC(=O)N1CCN(C(=O)c2cccc(-c3cnc4[nH]cc(-c5ccc(C(N)=O)cc5)c4c3)c2)CC1` [Example 151, 4-{3-[3-(4-carbamoyl-phenyl)-1H-pyrrolo[2,3-b]pyridin-5-yl]-benzoyl}-piperazine-1-carboxylic acid tert-butyl ester], below 0.1 µM.

Staying with this assay, now noted: read-out: MK3 IC50.
With `COc1cc(-c2cnc3[nH]c(=O)n(C4CCCC4)c3n2)ccc1N` [Example 118, 6-(4-amino-3-methoxyphenyl)-1-cyclopentyl-1H-imidazo[4,5-b]pyrazin-2(3H)-one], the half-inhibitory concentration (IC50) was in the range of 0.1 to 1 µM.
On the same count and under the same terms, next, `COc1cc(-c2cnc3c(c2)/C(=C\c2ccncc2)C(=O)N3)cc(OC)c1OC` [Example 129, (E)- and (Z)-3-pyridin-4-ylmethylene-5-(3,4,5-trimethoxy-phenyl)-1,3-dihydro-pyrrolo[2,3-b]pyridin-2-one]: above 1 µM.
With `CN1CCN(C(=O)c2cccc(-c3cnc4[nH]cc(-c5ccc6[nH]ccc6c5)c4c3)c2)CC1` [Example 147, {3-[3-(1H-indol-5-yl)-1H-pyrrolo[2,3-b]pyridin-5-yl]-phenyl}-(4-methyl-piperazin-1-yl)-methanone], the IC50 was below 0.1 µM.
